Source: paper PMC5584254, “Identification of novel small molecule Beclin 1 mimetics activating autophagy” (Oncotarget, 2017)
Counter-ions that a name gives are not always drawn.

Assays:
PC-3a = experiment: MTT-based cytotoxicity assay, PC-3a; conditions: Homo sapiens, averages of at least two independent experiments, read-out: Cytotoxicity in different cell lines (IC50, μM) PC-3a
Description: Human prostate cancer cell lines PC-3 and DU145, were purchased from American Type Culture Collection (ATCC) and used within 50 passages. PC-3a is a derivative of PC-3 that is resistant to chemo/radiotherapy, established in our lab and confirmed by genotyping. All cells were maintained in DMEM (Mediatech, Manassas, VA) supplemented with 10% fetal bovine serum (FBS) (Sigma-Aldrich, St. Louis, MO), 1% Glutamine (Mediatech, Manassas, VA), 1% antibiotics (Mediatech, Manassas, VA). Compounds for primary FP-based HTS screening were from Prestwick, Microsource, University of Kansas Center of Excellence in Chemical Methodologies & Library Development (KU CMLD, Lawrence, KS), and Chembridge libraries. Compounds for MTT and SPR validation experiment were purchased from Microsource (Gaylordsville, CT) and Hit2lead Company (San Diego, CA). Acridine analogues, compound 1–6, were from our in-house library (provided by Specialized Chemistry Center, University of Kansas, Lawrence, KS); compound 7–17 were synthesized as described in supplementary information. (–)-Gossypol was isolated from racemic gossypol as we previously described. ABT-263 and DMSO were purchased from Sigma. MTT-based cytotoxicity assay and western blot analysis was carried out according to our previous publications. The primary antibodies used were LC3B (#2775) (Cell signaling Technology, Danvers, MA) and β-actin (A5441) (Sigma).

PC-3 and PC-3a cells = experiment: RFP-GFP-LC3 fluorescence microscopy (autophagic flux); format: cell-based, Human; conditions: cells transfected with RFP-GFP-LC3, treated 24 h; PC-3a and PC-3
Procedure: Figure 5 Acridine compounds induce autophagy in prostate cancer cells (A) LC3-II conversion in western blot analysis indicated the activity of autophagy. Cells were treated with DMSO or compounds for 24 h, and then lysed and processed for western blot analysis of LC3. (–)G and EBSS were used as positive controls. […] Yellow puncta indicate autophagosome (overlay of red and green fluorescence); red puncta indicate autolysosome (due to green fluorescence quenching at the acidic condition). Cells expressing RFP-GFP-LC3 were treated with compounds A13, A15 or A21 at indicated concentration for 24 h.
PC-3 and PC-3a cells were transfected with ptfLC3 plasmid using Lipofectamine 2000 (Invitrogen Life Technologies, Carlsbad, CA). ptfLC3 was a gift from Tamotsu Yoshimori (Addgene plasmid # 21074), and is a tandem fluorescent-tagged LC3 with mRFP (mRFP, monomeric Red Fluorescent Protein) and EGFP (EGFP, Enhanced Green Fluorescent Protein). Twenty-four hours after transfection, cells were treated with compounds for 24 h, then fixed in 4% formaldehyde for 10 min. Cells were then washed three times with PBS, stained with DAPI (0.5 μg/ml in PBS) for 5 min and observed under a fluorescence microscope (OLYMPUS IX81, Tokyo, Japan) with X 40 lens.

[1] = biological target: T1, Bcl-xL-Beclin 1 20-mer complex (Homo sapiens, UniProt Q07817); experiment: FP competitive binding assay (disruption of Bcl-xL-20-mer complex); conditions: 2.5 μM Bcl-xL protein, 400 nM fluorescein-labeled 20-mer
T1 construct: made in house
T1 sequence (Q07817 whole entry, one chain of several): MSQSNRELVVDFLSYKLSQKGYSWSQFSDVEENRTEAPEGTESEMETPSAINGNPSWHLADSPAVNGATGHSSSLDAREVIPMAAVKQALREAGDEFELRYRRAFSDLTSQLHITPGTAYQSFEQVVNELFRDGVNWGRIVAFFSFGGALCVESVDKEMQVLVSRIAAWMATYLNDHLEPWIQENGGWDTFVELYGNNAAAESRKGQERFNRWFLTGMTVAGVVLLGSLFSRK
Procedure: Figure 1 FP-based HTS for Beclin 1 mimetics (A) Schematic presentation of the Beclin 1 protein and sequences of five synthetic peptides modified from Beclin 1 BH3 peptide. Diagram of human Beclin 1 protein with different domains is shown in the bottom. BH3 domain is necessary and sufficient for interaction with Bcl-2/Bcl-xL. Amino acids in red are the critical residues for the binding. (B) Five fluorescein-labeled Beclin 1 BH3 peptides were tested for their binding ability to Bcl-xL protein in FP assay. Fluorescein-labeled Bak BH3 peptide was used as a positive control. Bcl-xL protein was titrated to a solution of 50 nM peptides. (C) Competitive binding assay with positive controls, ABT-263 and (–)-gossypol ((–)G). […] (D–E) HTS was performed with ~50000 compounds from Prestwick, Microsource, CMLD and Chembridge libraries. The four libraries were divided into two groups and screened separately. Compounds activity (percent of inhibition) of first screen (D) and second screen (E) were shown with Z′ value indicated on top. Plate median + 3SD was used as a threshold to determine the initial hits.
Bcl-xL protein was immobilized on the sensor chip with 10000 RU.
All N′-fluorescein-labeled peptides were purchased from Kansas State University (Manhattan, KS). […] 16mer Bak ([…]) sequence was from published literature. Bcl-xL protein (25 kDa, > 90% pure based on SDS–PAGE) was expressed and purified in Protein Product Group, University of Kansas. FP assays were carried out as described in our previous publication with some modified. […] Then, fluorescein-labeled peptide was added to each well with a final concentration of 50 nM and incubated at room temperature for 30 min. Anisotropy measurements were taken at room temperature using a BioTek Synergy H4 plate reader (Biotek, Winooski, VT) following the protocol recommended by the manufacture. The Kd was estimated by nonlinear regression to a one-site binding model using GraphPad Prism 5.0 (GraphPad, San Diego, CA). […] Compound solvent DMSO only was used as a negative control in the competition assay. After 2 h incubation, the plate was read and polarization was calculated.

Structure (SMILES)	IC50 (PC-3a)	RFP-GFP-LC3 puncta (PC-3 and PC-3a cells)	IC50 [1]	Ki [1]
Nc1ccc2cc3ccc(N)cc3nc2c1 [Compound A13, PROFLAVINE HEMISULFATE]	0.68 ± 0.16 µM	many strong red puncta	4.84 µM	0.84 µM
CCOc1ccc2nc3cc(N)ccc3c(N)c2c1 [Compound A15, ETHACRIDINE LACTATE]	2.33 ± 0.99 µM	many strong red puncta	102 µM	28 µM
CCN(CC)CCCC(C)Nc1c2ccc(Cl)cc2nc2ccc(OC)cc12 (stereo not drawn) [Compound A21, QUINACRINE HYDROCHLORIDE]	0.8 ± 0.12 µM	many strong red puncta	48.7 µM	13.2 µM
